Experimental data as given in patent US7238689B2, “Isoxazoline derivative and herbicide comprising the same as active ingredient” (Ihara Chemical Industry Co., Ltd., priority 2001, dated 2007).

Assays:
Type in all cases: in vivo
Set-up in all cases: scale not given here
[1] = tested on: Echinochloa oryzicola Vasing; assay: Herbicidal effect by paddy field soil treatment; conditions: wettable powder, active ingredient 1000 g/ha, examined at the 21st day from the treatment
Procedure: (§1) A paddy field soil was filled in a plastic pot of 100 cm^2 and subjected to puddling. Then, seeds of Echinochloa oryzicola Vasing and Monochoria vaginalis (Murm. f.) Presl var. plantaginea (Roxb.) Solms-Laub. were sowed and water was filled in a depth of 3 cm. Next day, wettable powders produced in accordance with the Formulation 1 were diluted with water and dropped on the water surface. The application amount of each wettable powder was 1,000 g per 1 hectare in terms of the active ingredient. Then, breeding was made in a greenhouse, and the herbicidal effect of each wettable powder was examined at the 21st day from the treatment in accordance with the standard shown in Table 21.

[2] = tested on: Monochoria vaginalis (Murm. f.) Presl var. plantaginea (Roxb.) Solms-Laub.; assay: Herbicidal effect by paddy field soil treatment; conditions: wettable powder, active ingredient 1000 g/ha, examined at the 21st day from the treatment
Procedure: as §1

[3] = tested on: Echinochloa crus-galli (L.) Beauv. var. crusgalli; assay: Herbicidal effect by upland field soil treatment; conditions: active ingredient 1000 g/ha, examined at 21st day from treatment
Text: (§2) An upland field soil was filled in a plastic pot of 80 cm^2. Seeds of Echinochloa crus-galli (L.) Beauv. var. crusgalli and Setaria viridis (L.) Beauv. were sowed, followed by covering with the same soil. […] Then, breeding was made in a greenhouse, and the herbicidal effect of each wettable powder was examined at the 21st day from the treatment in accordance with the standard shown in Table 21.

[4] = tested on: Setaria viridis (L.) Beauv.; assay: Herbicidal effect by upland field soil treatment; conditions: active ingredient 1000 g/ha, examined at 21st day from treatment
Text: as §2

| SMILES | Herbicidal effect index, Echinochloa oryzicola Vasing [1] | Herbicidal effect index, Monochoria vaginalis (Burm. F.) Presl var. plantaginea (Roxb.) Solms-Laub. [2] | herbicidal effect (index per standard of Table 21), Echinochloa curs-galli (L.) Beauv. Var. crus-galli [3] | herbicidal effect (index per standard of Table 21), Setaria viridis (L.) Beauv. [4] |
| --- | --- | --- | --- | --- |
| CC1(C)CC(S(=O)(=O)Cc2nc(-c3ccccc3)no2)=NO1 [9-0006] | 5 | 5 | 5 | 4 |
| COCCn1nc(Cl)c(CS(=O)(=O)C2=NOC(C)(C)C2)c1C(F)(F)F [3-0125] | 5 | 5 | 5 | 5 |
| CCOc1snc(C)c1CS(=O)(=O)C1=NOC(C)(C)C1 [4-0008] | 5 | 5 | 5 | 5 |
| CC1(C)CC(S(=O)(=O)Cc2cccc3ccsc23)=NO1 [10-0015] | 5 | 5 | 5 | 5 |
| Cn1nc(C(F)(F)F)c(CS(=O)(=O)C2=NOC(C)(C)C2)c1OC(F)F [3-0054] | 5 | 5 | 5 | 5 |
| Cn1nc(-c2ccccc2)c(CS(=O)(=O)C2=NOC(C)(C)C2)c1Cl [3-0072] | 5 | 5 | 5 | 5 |
| Cc1ccc(CS(=O)(=O)C2=NOC(C)(C)C2)s1 [1-0003] | 5 | 5 | 5 | 5 |
| CC1(C)CC(S(=O)(=O)Cc2c(Cl)nn(CC(F)(F)F)c2C(F)(F)F)=NO1 [3-0117] | 5 | 5 | 5 | 5 |
| CC1(C)CC(S(=O)(=O)Cc2c(C(F)(F)F)nn(C3CCCCC3)c2Cl)=NO1 [3-0091] | 5 | 5 | 5 | 5 |
| CCC1(C)CC(S(=O)(=O)Cc2c(C(F)(F)F)nn(C)c2Cl)=NO1 (centres unmarked) [3-0180] | 5 | 5 | 5 | 5 |
| CC1(C)CC(S(=O)(=O)Cc2cc(Cl)sc2Cl)=NO1 [2-0005] | 5 | 5 | 5 | 5 |
| CC1(C)CC(S(=O)(=O)Cc2c(Cl)nn(CC(N)=O)c2C(F)(F)F)=NO1 [3-0139] | 5 | 5 | 5 | 5 |
| CC1(C)CC(S(=O)(=O)Cc2nc3ccccc3s2)=NO1 [10-0006] | 5 | 5 | 5 | 4 |
| CC1(C)CC(S(=O)(=O)Cc2c(C(F)(F)F)nn(-c3ccccc3)c2C(F)(F)F)=NO1 [3-0153] | 5 | 5 | 5 | 5 |
